Type in all cases: in vivo, mouse
Data set [1] concerns hepatic CXCL10/IP-10, CXCL9/MIG, ICAM-1 and VCAM-1 expression. Put plainly: Immunohistochemistry of liver sections after mirtazapine treatment. Here is the method: Male 8-10 week old C57BL/6 mice (Jackson Labs, Bar Harbor, Me.) were used. All procedures were approved by the University of Calgary Animal Care Committee (protocol numbers AC14-0129 and AC14-0128) and were performed in accordance with the guidelines of the Canadian Council on Animal Care. To delineate the impact of mirtazapine treatment upon liver immune cell numbers and phenotype, and upon cytokine/chemokine networks within the liver, mice were treated with mirtazapine 1-20 mg/kg intraperitoneally^13-15. Mirtazapine was suspended in 1% aqueous solution of Tween 80, whereas the control group received 1% aqueous solution of Tween 80. Blood and liver samples were collected 5 hours post-mirtazapine treatment (or 16 hours post-Con A treatment). The detailed experimental protocols, lists of antibodies and reagents used, flow cytometry gating, and immune cell phenotyping strategies, are described herein. Hepatic CXCL10/IP-10, CXCL9/MIG, ICAM-1 and VCAM-1 expression were determined using immunohistochemistry, as previously described. Briefly, following initial deparaffinization and rehydration of tissue sections, antigen retrieval was performed in lx Citrate buffer, PH 6.0 (Abcam) for IP-10/CXCL9 and MIG/CXCL9, or in 1X EDTA buffer pH 8.0 for ICAM1 and VCAM-1. In all cases slides were incubated in antigen retrieval buffer at 95-100° C. for 20 minutes. […] This was followed by incubation with biotinylated rabbit anti-goat, goat-anti rat or goat anti-rabbit secondary antibodies (at 1:150) for 1 hour at room temperature (Vector Labs). Negative staining controls were performed by omission of primary antibody, or by omission of both primary and secondary antibodies. […] This was followed by incubation with Vectastain Elite ABC kit (Vector Laboratories) for 30 min at room temperature. Color was developed with Nova Red Chromogen (ImmPACT NovaRED Peroxidase Substrate, Vector Lab, Burlingame, Calif.), after which sections were counterstained with hematoxylin (EMD Millipore). Mounted slides were converted to virtual slides with a BX61 VS virtual microscopy system equipped with an XC10 camera and VS ASW software (Olympus) (original magnification ×400). For ICAM-1, VCAM1, CXCL9/Mig, and CXCL10/IP10 expression, all scanned virtual slides of the sections were examined in a blinded fashion, and expression patterns evaluated and described.

Data set [2] concerns peripheral blood and splenic B cells. Description: Peripheral blood and splenic B cells by flow cytometry (Example 6). As to conditions: 20 mg/kg ip, 5 hrs post-treatment. Here is the method: Male C57BL/6 mice (age 8-10 wks) were treated with mirt (20 mg/kg ip) or vehicle and livers removed 3-5 hrs later for B cell isolation and characterization by flow cytometry (FACS). Similarly peripheral blood and splenic B cells numbers were determined by FACS. Liver cytokine and chemokine levels were measured by Luminex®.

A short description of data set [3]: Liver injury after mirtazapine alone (serum ALT, histology). To be noted: data not shown. The protocol:
Male 8-10 week old C57BL/6 mice (Jackson Labs, Bar Harbor, Me.) were used. All procedures were approved by the University of Calgary Animal Care Committee (protocol numbers AC14-0129 and AC14-0128) and were performed in accordance with the guidelines of the Canadian Council on Animal Care. To delineate the impact of mirtazapine treatment upon liver immune cell numbers and phenotype, and upon cytokine/chemokine networks within the liver, mice were treated with mirtazapine 1-20 mg/kg intraperitoneally^13-15. Mirtazapine was suspended in 1% aqueous solution of Tween 80, whereas the control group received 1% aqueous solution of Tween 80. Blood and liver samples were collected 5 hours post-mirtazapine treatment (or 16 hours post-Con A treatment). The detailed experimental protocols, lists of antibodies and reagents used, flow cytometry gating, and immune cell phenotyping strategies, are described herein.
To assess liver injury, plasma alanine aminotransferase (ALT) activity was measured (Roche-Hitachi Modular-P800 apparatus; Roche, Mannheim, Germany). Additionally, formalin-fixed liver tissue slices were stained with Hematoxylin and Eosin (H&E) for microscopic examination. Extent of liver parenchymal necrosis was quantitated as previously described, using an Olympus XC10 camera (acquired using the Olympus VS-ASW software package; original magnification ×400). […]

SMILES strings stand for the structures.

Regarding `CN1CCN2c3ncccc3Cc3ccccc3C2C1` (stereo not shown) [Mirtazapine], in data set [1] (hepatocytes and sinusoidal endothelium, vs vehicle), the “Hepatic CXCL10 expression (IHC)” value is reported as “strikingly increased”. In data set [1] (normal liver, vs vehicle), the “Hepatic ICAM-1 expression (IHC)” value is recorded as “did not notably alter ICAM-1 expression”; the “Hepatic VCAM-1 expression (IHC)” value was “enhanced VCAM-1 staining intensity in sinusoidal endothelium and a marked increase in VCAM-1 expression intensity in sinusoidal immune cells”. In addition, the “Hepatic CXCL9 staining (IHC)” value in data set [1] (vs vehicle treated mice) is reported as “increased CXCL9 staining mainly within hepatocytes”. Besides, in data set [2], the “Peripheral blood B cells (as % of total CD45+ leukocytes)” value is recorded as “highly significant drop” and the “Splenic B cell numbers” value is recorded as “paralleled by similar changes”. Further, the “Liver injury as reflected by serum ALT levels or histology” value in data set [3] is recorded as “did not induce liver injury”.

The values above are taken from US11510928B2, “Use of mirtazapine in the treatment of inflammatory disorders, autoimmune disease and PBC” (UTI Limited Partnership, priority 2017, dated 2022).
